# Test results reported in patent US4339440A, “Enkephalin analogs and a process for the preparation thereof” (priority 1980, dated 1982).
# Square brackets hold non-standard residues; d marks the D form. Ends that are not written are not given here.
# How the values were obtained:
# anesthetized cats = assay: Cardiovascular effects in cats anesthetized with pentobarbital (blood pressure, heart rate, vasomotor reflex elicited by carotis occlusion); assay type: in vivo
# Description: In addition to the effects on the blood pressure and heart rate, the actions on the vasomotor reflex elicited by carotis occlusion, were also studied. […] The duration of the former effects was 20-25 min., while that of the latter was 40-60 min. […] It is noteworthy that the reference compound morphine […] hypotension of similar magnitude produced by 0.1 mg/kg of peptides only in doses higher than 1.0 mg/kg (Table 2).
# (a) Cats of both sexes, weighing 3000-4000 g, anesthetized with 35 mg/kg pentobarbital, i.p.
# (b) C.O.: Inhibition of vasomotor reflex elicited by carotis occlusion;
# mouse vas deferens (MVD) = conditions: literature comparison of GPI and MVD preparations; cited from earlier work
compound,measurement,setting,value
"CN1CC[C@]23c4c5ccc(O)c4O[C@H]2[C@@H](O)C=C[C@H]3[C@H]1C5 [Morphine, morphine]",Decrease of heart rate,anesthetized cats; 0.2 mg/kg i.v.,.phi.
same,Fall in blood pressure,anesthetized cats; 0.2 mg/kg i.v.,6.7 ± 2.1 mm Hg
same,Inhibition of C.O. (vasomotor reflex elicited by carotis occlusion),anesthetized cats; 0.2 mg/kg i.v.,.phi.
same,Decrease of heart rate,anesthetized cats; 1.0 mg/kg i.v.,10.2 ± 2.3 beat/min.
same,Fall in blood pressure,anesthetized cats; 1.0 mg/kg i.v.,16.7 ± 3.2 mm Hg
same,Inhibition of C.O. (vasomotor reflex elicited by carotis occlusion),anesthetized cats; 1.0 mg/kg i.v.,+ (inhibition is smaller than 50%)
same,Decrease of heart rate,anesthetized cats; 5.0 mg/kg i.v.,16.7 ± 3.5 beat/min.
same,Fall in blood pressure,anesthetized cats; 5.0 mg/kg i.v.,33.6 ± 6.7 mm Hg
same,Inhibition of C.O. (vasomotor reflex elicited by carotis occlusion),anesthetized cats; 5.0 mg/kg i.v.,++ (inhibition is higher than 50%)
same,Dose eliciting hypotension of similar magnitude to that produced by 0.1 mg/kg of peptides,anesthetized cats; i.v.,higher than 1.0 mg/kg
same,Activity on MVD compared with GPI (in words),mouse vas deferens (MVD),higher activity on GPI
Tyr-D-Ala-Gly-MePhe-Met(O)-ol,Activity on MVD compared with GPI (in words),mouse vas deferens (MVD),twice as active on GPI as on MVD
Tyr-D-Ala-Gly-Phe-D-Leu,Activity on MVD compared with GPI (in words),mouse vas deferens (MVD),more active on MVD than on GPI
Y[dM]GFP-NH2,Activity on MVD compared with GPI (in words),mouse vas deferens (MVD),the same level of activity on both preparations
"β-Endorphine: β-Endorphine of natural occurrence (a 31-membered polypeptide) (YGGFMTSEKSQTPLVTLFKNAIIKNAYKKGE; Beta-endorphin; UniProt P01189 237-267, looked up)",Activity on MVD compared with GPI (in words),mouse vas deferens (MVD),equally active on GPI and MVD
